Results published in paper PMC7228129, “Evaluation of Developmental Toxicity, Developmental Neurotoxicity, and Tissue Dose in Zebrafish Exposed to GenX and Other PFAS” (Environmental Health Perspectives, 2020).
Entries after “also recorded” stand apart in the source; their conditions may differ.

System: zebrafish
Test: Developmental neurotoxicity (DNT) assay, light/dark locomotor behavior test
Assay type: in vivo, Danio rerio
Settings: for Developmental neurotoxicity / locomotor activity outcome / Concentration causing hyperactivity in D1 period / Concentration causing hyperactivity in L1 period / Concentration causing hyperactivity in L2 period / Concentration causing hyperactivity in D2 period: tested 6 dpf; for DNT assay phenotype: Table 5 summary, this study (some rows also list literature); for Concentration causing hyperactivity in D1 period: dark 1; for Concentration causing hyperactivity in D1 period / Concentration causing hyperactivity in L1 period / Concentration causing hyperactivity in L2 period / Concentration causing hyperactivity in D2 period: daily 0–5 dpf, vs 0.4% DMSO; for Concentration causing hyperactivity in L2 period: light 2; for Concentration causing hyperactivity in D2 period: dark 2
Protocol: At 0 dpf, zebrafish embryos were bleached as previously described ([Tal et al. 2017]). A single embryo at the dome-to-epiboly stages ([Kimmel et al. 1995]) was placed into each individual well of a 96-well plate containing a 40-μm nylon mesh filter (Millipore, Catalog No. MANMN4010) with 400μL of 10% Hanks’ balanced salt solution (HBSS) per well. Filter inserts containing zebrafish embryos were transferred to 96-well culture trays (Millipore, Catalog No. MAMCS9610) containing 250μL of 10% HBSS ([Westerfield 2007]) and 1μL of 250× working solutions per well. A final concentration of 0.4% DMSO was used for all exposure groups and as a vehicle control. In the case of GenX Free Acid in Study 2 (Figure 1), DI water was used as a vehicle control. Daily, from 1–5 dpf, plates underwent 100% media changes to refresh chemical dosing solutions by blotting (Brandel; Catalog No. FPXLR-196) and transferring mesh inserts containing zebrafish to new bottom plates (Millipore; Catalog No. MAMCS9610). To minimize evaporation, plates were sealed (Biorad; Catalog No. MSA5001) and wrapped with parafilm. Plates were maintained on a 14 h:10 h light cycle at 26.0°C and scored daily for death, malformations, hatching, and swim bladder inflation. At 6 dpf, plates were evaluated by two independent observers and DevTox or DNT assays were performed or media and tissue were collected for analytical chemistry analyses as described below.
To increase the likelihood of observing behavioral effects in morphologically normal larvae, the highest concentration evaluated in the DNT assay was the lowest observed effect concentration (LOEC) determined in DevTox assay. Zebrafish were exposed in parallel to 4.4, 7.9, 14.0, 25.1, 44.8, or 80.0μM PFOA, PFHxS, PFHxA, or ADONA or 0.2, 0.3, 0.6, 1.0, 1.8, or 3.1μM PFOS or 0.4% DMSO. Subsequently, as part of Study 1, exposure to 4.4, 7.9, 14.0, 25.1, 44.8, or 80.0μM PFESA1, or 0.4% DMSO was evaluated. In Study 2, zebrafish were exposed to 4.4, 7.9, 14.0, 25.1, 44.8, or 80.0μM GenX Free Acid, or DI water. In Study 3, to increase the likelihood of observing malformations with shorter-chain compounds at multiple test concentrations, the highest concentration evaluated was 100.0μM . Zebrafish were exposed to 5.5, 9.8, 17.6, 31.4, 56.0, or 100.0μM PFBS; 3.1, 5.5, 9.8, 17.6, 31.4, or 56.0μM PFHxS; 1.7, 3.1, 5.5, 9.8, 17.6, or 31.4μM PFHpS; or 0.5, 1.0, 1.7, 3.1, 5.5, or 9.8μM PFOS, or 0.4% DMSO. Subsequently, as part of Study 3, zebrafish were exposed to 3.1, 5.5, 9.8, 17.6, 31.4, or 56.0μM PFPeS, or 0.4% DMSO. Chemical exposures and assessments were performed daily, as described above. To evaluate swimming behavior in a light/dark behavior test, microtiter plates were placed in a dark, temperature-controlled behavior testing room set to 26.0°C for at least 2 h prior to testing. At the time of testing, microtiter plates were placed on a Noldus tracking apparatus. Locomotor activity was recorded (30 frames/s) for a total of 60 min consisting of a 20-min dark acclimation period (0 lux) that was not analyzed followed by a 40-min testing period consisting of a 20-min light period (5.0 lux) and 20-min dark period (0 lux). Videos were analyzed using Ethovision software (version 3.1; Noldus Information Technology) as previously described ([Jarema et al. 2015]). Locomotor activity was collected for each individual fish for each 2-min period (minimum distance moved, set to 0.135cm ). Thus, for a 40-min test, 20 data points were collected per larvae. […] Four additional criteria for inclusion of individual larvae were applied. One, all larvae that were identified as abnormal, severely abnormal, or dead were excluded. Two, larvae with uninflated swim bladders were removed from analyses. Three, individual larvae that moved <2cm in either […] dark period were removed.

[1] = Study 1, 4.4–80.0 μM daily 0–5 dpf, 0.4% DMSO
[2] = Study 1, light 1 (first 10 min light)

Compound | Developmental neurotoxicity / locomotor activity outcome [1] | DNT assay phenotype | Concentration causing hyperactivity in D1 period (Study 1) [µM] | Concentration causing hyperactivity in L1 period [2] [µM] | Concentration causing hyperactivity in L2 period (Study 1) [µM] | Concentration causing hyperactivity in D1 period (Study 3) [µM] | Concentration causing hyperactivity in D2 period (Study 3) | Concentration causing hyperactivity in L1 period (Study 3, light 1) [µM] | Concentration causing hyperactivity in L2 period (Study 3) [µM] | Developmental neurotoxicity / locomotor activity outcome (Study 2, 4.4–80.0 μM in DI water daily 0–5 dpf) | Concentration causing hyperactivity in D2 period (Study 1) [µM]
O=C(O)C(F)(F)C(F)OC(F)(F)C(F)(F)C(F)(F)OC(F)(F)F (stereo not drawn) [ADONA, 4,8-Dioxa-3H-perfluorononanoate] | did not exhibit differences in locomotor activity; also recorded: failed to provoke developmental toxicity or developmental neurotoxicity; also recorded: negative | Negative^a | – | – | – | – | – | – | – | – | –
O=S(=O)(O)C(F)(F)C(F)(F)C(F)(F)C(F)(F)C(F)(F)C(F)(F)C(F)(F)C(F)(F)F [PFOS, Perfluorooctanesulfonic acid] | – | Hyperactivity | 0.6 to 1.8 | 1.0 | 0.6 to 1.8 | 1.0 | no effect | 1.7 to 3.1 | 1.7 to 3.1 | – | –
O=C(O)C(F)(F)C(F)(F)C(F)(F)C(F)(F)C(F)(F)C(F)(F)C(F)(F)F [PFOA, Perfluoro-n-octanoic acid] | did not exhibit differences in locomotor activity; also recorded: negative | Negative | – | – | – | – | – | – | – | – | –
O=S(=O)(O)C(F)(F)C(F)(F)OC(F)(C(F)(F)F)C(F)(F)OC(F)=C(F)F (stereo not drawn) [PFESA1, Perfluoro-3,6-dioxa-4-methyl-7-octene-1-sulfonic acid] | did not exhibit differences in locomotor activity; also recorded: failed to provoke developmental toxicity or developmental neurotoxicity; also recorded: negative | Negative^a | – | – | – | – | – | – | – | – | –
O=S(=O)(O)C(F)(F)C(F)(F)C(F)(F)C(F)(F)C(F)(F)C(F)(F)F [PFHxS, Perfluorohexanesulfonic acid] | – | Hyperactivity^a | – | 14.0 to 25.1 | 14.0 | 17.6 | 17.6 µM | – | 17.6 to 31.4 | – | –
O=C(O)C(F)(OC(F)(F)C(F)(F)C(F)(F)F)C(F)(F)F (stereo not drawn) [GenX Free Acid, Perfluoro-2-propoxypropanoic acid] | – | Negative^a | – | – | – | – | – | – | – | negative; also recorded: failed to provoke developmental toxicity or developmental neurotoxicity | –
O=C(O)C(F)(F)C(F)(F)C(F)(F)C(F)(F)C(F)(F)F [PFHxA, Perfluorohexanoic acid] | hyperactivity in the L2, D1, and D2 periods | Hyperactivity^a | 14.0 to 25.1 | – | 25.1 | – | – | – | – | – | 14.0 to 25.1
